In the supplement of paper PMC13207355:
Counter-ions that a name gives are not always drawn.

Assays:
Conditions in all cases: exposure time: 72 h
E57 [1] = patient-derived glioblastoma stem cells of mesenchymal subtype; test: surviving fraction (nuclei count normalised to DMSO); higher = more cells surviving (less toxic)
E21 [2] = patient-derived glioblastoma stem cells of mesenchymal subtype; test: as above
FT3469 [3] = normal neural stem cell line; test: as above
E13 [4] = patient-derived glioblastoma stem cells of classical subtype; test: as above
E34 [5] = patient-derived glioblastoma stem cells of proneural subtype; test: as above
E28 [6] = patient-derived glioblastoma stem cells of classical subtype; test: as above
E31 [7] = patient-derived glioblastoma stem cells of proneural subtype; test: as above
E57 [8] = test: phenotypic distance (Euclidean, principal components) from DMSO controls (arbitrary units); higher = stronger morphological change
E21 [9] = test: as above
FT3469 [10] = test: as above
E13 [11] = test: as above
E34 [12] = test: as above
E28 [13] = test: as above
E31 [14] = test: as above
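Wherever phenotypic distance (Euclidean, principal components) from DMSO controls is given: cell Painting imaging in 384-well plates, CellProfiler features reduced to at least 20 principal components, Euclidean distance versus same-plate DMSO vehicle wells (0.1% v/v), median over six images per well.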
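Wherever surviving fraction (nuclei count normalised to DMSO) is given: nuclei counted by high-content imaging of Hoechst-stained cells in laminin-coated 384-well plates, relative to 0.1% DMSO vehicle wells, with staurosporine as cell-death control.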

CC(C)NCC(O)c1ccc(O)c(O)c1 (stereo not drawn) [Isoproterenol hydrochloride]
Conditions | phenotypic distance | surviving fraction
E13 [4], 4.1 nM | – | 0.935
E13 [4], 12.3 nM | – | 0.961
E13 [4], 37 nM | – | 1.01
E13 [4], 111.1 nM | – | 0.949
E13 [4], 333.3 nM | – | 0.974
E13 [4], 1000 nM | – | 0.842
E13 [4], 3000 nM | – | 1
E13 [11], 4.1 nM | 1.71 | –
E13 [11], 12.3 nM | 1.34 | –
E13 [11], 37 nM | 1.11 | –
E13 [11], 111.1 nM | 0.927 | –
E13 [11], 333.3 nM | 0.863 | –
E13 [11], 1000 nM | 0.656 | –
E13 [11], 3000 nM | 0.895 | –
E21 [2], 4.1 nM | – | 0.983
E21 [2], 12.3 nM | – | 0.836
E21 [2], 37 nM | – | 0.946
E21 [2], 111.1 nM | – | 0.954
E21 [2], 333.3 nM | – | 0.957
E21 [2], 1000 nM | – | 1.03
E21 [2], 3000 nM | – | 0.989
E21 [9], 4.1 nM | 1.03 | –
E21 [9], 12.3 nM | 0.961 | –
E21 [9], 37 nM | 0.559 | –
E21 [9], 111.1 nM | 0.37 | –
E21 [9], 333.3 nM | 0.707 | –
E21 [9], 1000 nM | 0.442 | –
E21 [9], 3000 nM | 0.786 | –
E28 [6], 4.1 nM | – | 1.14
E28 [6], 12.3 nM | – | 1.19
E28 [6], 37 nM | – | 1.05
E28 [6], 111.1 nM | – | 1.09
E28 [6], 333.3 nM | – | 1.17
E28 [6], 1000 nM | – | 1.1
E28 [6], 3000 nM | – | 1.22
E28 [13], 4.1 nM | 1.26 | –
E28 [13], 12.3 nM | 0.749 | –
E28 [13], 37 nM | 0.577 | –
E28 [13], 111.1 nM | 0.661 | –
E28 [13], 333.3 nM | 0.903 | –
E28 [13], 1000 nM | 0.652 | –
E28 [13], 3000 nM | 0.87 | –
E31 [7], 4.1 nM | – | 0.999
E31 [7], 12.3 nM | – | 1.05
E31 [7], 37 nM | – | 0.967
E31 [7], 111.1 nM | – | 0.989
E31 [7], 333.3 nM | – | 1.02
E31 [7], 1000 nM | – | 1.27
E31 [7], 3000 nM | – | 1.24
E31 [14], 4.1 nM | 3.31 | –
E31 [14], 12.3 nM | 0.604 | –
E31 [14], 37 nM | 0.63 | –
E31 [14], 111.1 nM | 0.645 | –
E31 [14], 333.3 nM | 0.706 | –
E31 [14], 1000 nM | 0.745 | –
E31 [14], 3000 nM | 0.88 | –
E34 [5], 4.1 nM | – | 1.03
E34 [5], 12.3 nM | – | 1
E34 [5], 37 nM | – | 1.13
E34 [5], 111.1 nM | – | 1.09
E34 [5], 333.3 nM | – | 1.15
E34 [5], 1000 nM | – | 1.11
E34 [5], 3000 nM | – | 1.11
E34 [12], 4.1 nM | 0.806 | –
E34 [12], 12.3 nM | 0.933 | –
E34 [12], 37 nM | 0.861 | –
E34 [12], 111.1 nM | 0.633 | –
E34 [12], 333.3 nM | 0.9 | –
E34 [12], 1000 nM | 0.781 | –
E34 [12], 3000 nM | 0.963 | –
E57 [1], 4.1 nM | – | 1.01
E57 [1], 12.3 nM | – | 0.941
E57 [1], 37 nM | – | 0.999
E57 [1], 111.1 nM | – | 0.974
E57 [1], 333.3 nM | – | 1.12
E57 [1], 1000 nM | – | 1.14
E57 [1], 3000 nM | – | 1.11
E57 [8], 4.1 nM | 0.878 | –
E57 [8], 12.3 nM | 0.696 | –
E57 [8], 37 nM | 0.871 | –
E57 [8], 111.1 nM | 1.09 | –
E57 [8], 333.3 nM | 1.1 | –
E57 [8], 1000 nM | 3.04 | –
E57 [8], 3000 nM | 1.28 | –
FT3469 [3], 4.1 nM | – | 0.975
FT3469 [3], 12.3 nM | – | 1.04
FT3469 [3], 37 nM | – | 0.928
FT3469 [3], 111.1 nM | – | 1.15
FT3469 [3], 333.3 nM | – | 1.18
FT3469 [3], 1000 nM | – | 1.04
FT3469 [3], 3000 nM | – | 1.1
FT3469 [10], 4.1 nM | 1.05 | –
FT3469 [10], 12.3 nM | 0.977 | –
FT3469 [10], 37 nM | 1.54 | –
FT3469 [10], 111.1 nM | 0.756 | –
FT3469 [10], 333.3 nM | 1.08 | –
FT3469 [10], 1000 nM | 0.765 | –
FT3469 [10], 3000 nM | 1.18 | –
